Source: patent US8071575B2, “Methods and compounds for the targeted delivery of agents to bone for interaction therewith” (priority 2007, dated 2011)
“Also recorded” adds a separate entry of the source.

Columns and labels:
[1] = Hydroxyapatite (HA) Binding Assay; settings: 10^−5 M analyte, 50 mM Tris-HCl pH 7.4, 1% DMSO; adjusted such that tetracycline = 100
Procedure: A Hydroxyapatite (HA) Binding Assay is used to determine whether compounds have an affinity for bone. Compounds of the presently-disclosed subject matter having a Bone Targeting Portion (RT) are studied using the HA Binding Assay. A 10^−3 M solution of each analyte was made in 100% dimethylsulfoxide (DMSO). A 100 fold dilution was then made to form a 10^−5 M solution in 50 mM Tris-HCl buffer, pH 7.4, 1% DMSO. Tetracycline was used as a reference analyte and approximately 50% was adsorbed to HA at the concentration of 10^−5 M. The HA slurry was 0.5 g/100 mL 50 mM Tris-HCl buffer, 1% DMSO.
For each analyte, two samples were prepared. For one sample, 1 mL of 10^−5 M analyte and 100 μL 50 mM Tris-HCl buffer, 1% DMSO was pipetted into a microcentrifuge tube. For the second sample, 1 mL of 10^−5 M analyte and 100 μL of the HA slurry was pipetted into a microcentrifuge tube. The samples were mixed gently by inversion for 4 minutes and then centrifuged at 12,000 g for 3 minutes to sediment the HA contained in those samples. The supernatant was transferred to another microcentrifuge tube.
An electronic spectral scan (ultraviolet-visible) from 220-520 nm was obtained for each analyte using a Varian Cary 300 Bio Scan. The blank was 50 mM Tris-HCl buffer, 1% DMSO. The wavelength of maximum absorbance (λmax) was determined, and the extinction coefficient (ε) was calculated using the Beer-Lambert Law.
The absorbance of the samples incubated with HA was measured at λmax, and the molar concentration of the analyte was then determined using the Beer-Lambert Law and the previously calculated extinction coefficient. The fraction adsorbed to HA for each sample was subsequently calculated.

[2] = tested on: OVX rats; assay: Quantitative determination of lipid metabolism (total cholesterol, HDL, LDL) in rat serum; assay type: in vivo, Sprague-Dawley female rats
Procedure: (§1) Animals. Six month old, bilaterally ovariectomized (OVX) or sham operated Sprague-Dawley female rats (Harlan Laboratories, Indianapolis, Ind.) were maintained at the University of Louisville Research Resources Center at 22° C. with a 12-h light/dark cycle and ad libitum access to tap water and rodent chow (Purina Laboratory Rodent Diet 5001). All animal procedures were approved by the Institutional Animal Care and Use Committee, which is certified by the American Association for Accreditation of Laboratory Animal Care.
(§2) In vivo experiments were conducted in order to investigate the efficacy of compounds of the presently-disclosed subject matter. In all of the experiments, OVX and sham operated rats were randomly divided into groups of 5-7 animals. In all of the studies experimental groups included: i) Sham-operated control (euthanized six weeks post surgery as a pretreatment control), ii) OVX control (euthanized six weeks post surgery as a pretreatment control), iii) Sham control receiving vehicle, iv) OVX control receiving vehicle, v) OVX receiving 17-ethinyl estradiol (equimolar concentration with a selected test compound), vi) OVX receiving alendronate (1.6 mg/kg), and vii) OVX receiving parathyroid hormone 1-34 (PTH) ([…]). 17-ethinyl estradiol (17 EE) is a free estrogenic agent known to be orally active, and can serve as an example of an anti-catabolic agent. Alendronate (Alen) is a bisphosphonate that is currently used to treat osteoporosis (e.g., Fosamax®, Merck & Co., Inc,), and can serve as an example of an anti-catabolic agent. Parathyroid hormone 1-34 (PTH) is an agent that can serve as an example of an anabolic agent. All compounds and vehicle (1% DMSO in corn oil) were administered three times per week orally by gavage except for PTH which was administered via a subcutaneous injection in a volume of 0.5 ml/kg body mass thrice per week. Compound administration was initiated 6 weeks following surgery and lasted for 6 weeks (18 doses total).
(§3) Following 6 weeks of treatment, blood was obtained from each animal via cardiac puncture following an overnight fast and animals were subsequently euthanized via carbon dioxide asphyxiation. Blood was centrifuged immediately and the obtained serum samples were aliquoted and stored at −70° C. prior to analysis. Uteri were removed and fresh weights were obtained. Uterine masses were normalized to body mass at the end of the experiment. The left and right femora and left and right tibiae were subsequently collected from each animal, cleaned of soft tissue, and stored in saline at 4° C. prior to analysis.
Quantitative Determination of Lipid Metabolism (Total Cholesterol HDL, and LDL) in Rat Serum. Total cholesterol, high-density lipoprotein (HDL), and low-density lipoprotein (LDL) were quantitatively determined in the serum of rats in order to evaluate the extraosseous effects of estrogen treatment on lipid metabolism. Commercially available kits from Wako Diagnostics (Richmond, Va.) were used for the evaluations as recommended by the manufacturer.

[3] = tested on: OVX rats; assay: Femoral density via Archimedes' Principle (whole bone); assay type: in vivo, Sprague-Dawley female rats; settings: for whole bone density and regional bone density: present-tense example, no data or figure
Procedure: as §1, §2
(§4) Compounds of the presently-disclosed subject matter were orally administered to OVX rats at various doses. As indicated above all BTE's were administered three times per week for 6 weeks.
as §3
Femoral Density via Archimedes' Principle. Right femora were submerged in distilled water and fully hydrated under a vacuum for 1 hr. Subsequently, the mass of each hydrated femur was obtained in air and when submerged in water. Densities were determined using Archimedes' Principle according to the following formula: density=[mass of hydrated femur/(mass of hydrated femur−mass of hydrated femur submerged in water)]×density of distilled water at a given temperature (See Keenan, et al. Comparison of bone density measurement techniques: DXA and Archimedes' principle. J Bone Miner Res 1997; 12:1903-7.). The obtained density measurements were associated with whole bone.

[4] = tested on: OVX rats; assay: Regional femoral density via Archimedes' Principle; assay type: in vivo, Sprague-Dawley female rats; settings: oral 10, 100, or 1000 μg/kg, three times per week for 6 weeks
Procedure: as §1, §2, §4
Following 6 weeks of treatment, blood was obtained from each animal via cardiac puncture following an overnight fast and animals were subsequently euthanized via carbon dioxide asphyxiation. […]
Regional Femoral Density via Archimedes' Principle. […] Briefly, each femur was measured with a Cen-Tech Digital Caliper and a cut was made from each end at 20% of the length of the femur plus half the width of the blade. Subsequently, the bone marrow was washed out of the femoral diaphysis and the Archimedes density for each of the three femoral regions was determined as described above.

[5] = tested on: OVX rats; assay: Volume fraction, ex vivo micro-computed tomography of tibia; assay type: in vivo, Sprague-Dawley female rats; settings: for bone density from three-dimensional micro-CT images / trabecular volume fraction: OVX rats, oral 10, 100, or 1000 μg/kg; for trabecular volume fraction: ex vivo micro-CT; for volume fraction (BV/TV) of trabecular, cortical and whole bone tissue: present-tense example, no data or figure
Procedure: as §1, §2, §4, §3
Volume Fraction—Ex vivo micro-computed tomography (μCT). Volume fraction is a representative value for the amount of bone that occupies a given volume or space. High resolution image data were collected using a customized micro-CT system (ACTIS 150/225 system, BIR Inc., Lincolnshire, Ill.). The metaphysis of each right tibia was scanned over a three millimeter range and three-dimensional images were reconstructed. Data were subsequently processed to reveal the volume fraction (BV/TV) occupied by trabecular (cancellous) bone tissue, cortical bone tissue, and whole bone tissue. The resulting data provides information regarding the density of whole bone, cortical bone, and trabecular bone.

[6] = tested on: OVX rats; assay: Bone mechanical competence indentation test; assay type: in vivo, Sprague-Dawley female rats; settings: for bone strength (indentation test): present-tense example, no data or figure
Procedure: as §1, §2, §4, §3
Bone Mechanical Competence Indentation Test. After sacrifice, the left tibiae were trimmed to expose the cancellous bone of the proximal tibial metaphysis and an indentation test was performed by advancing a flat-tipped cylindrical post (1.5 mm diameter) axially into the cut surface to measure the compressive strength of the cancellous bone structure.

[7] = tested on: ICR Swiss mice; assay: Stimulation of periosteal bone formation in a mouse calvarial injection model; assay type: in vivo; settings: present-tense example, no data or figure
Procedure: Stimulation of Periosteal Bone Formation in a Mouse Calvarial Injection Model. The anabolic (bone formation) of compounds of the presently-disclosed subject matter are evaluated in the mouse calvarial injection model. Briefly, 4-week-old ICR Swiss mice are injected subcutaneously over the surface of the calvariae with compounds of the presently-disclosed subject matter at concentrations of 0, 1, 3, and 10 mg/kg/day for 5 days (twice a day). Microtubule inhibitor TN-16 (5 mg/kg/day for 2 days, twice a day) are used as a positive control. Mice are sacrificed two weeks after the injections are completed. Dissected calvarial samples are fixed in 10% phosphate-buffered formalin for 2 days, decalcified in 10% EDTA for 2 weeks and then embedded in paraffin. Histological sections are cut and stained with H&E and orange G. New woven bone formation (new bone area) is quantified by histomorphometry using the OsteoMeasure system (OsteoMetrics Inc., Atlanta, Ga.).

[8] = tested on: OVX rats; assay: Uterine mass and uterine mass to body weight ratio in OVX rats; assay type: in vivo, Sprague-Dawley female rats; settings: for uterine mass: present-tense example, no data or figure
Procedure: as §1, §2, §4, §3
Uterine Mass and Body Weight. […] Uterine mass can be used to as a measure of estrogenic effect occurring in a tissue outside the bone in response to treatment with a test compound or composition. Generally, a lower uterine mass can be associated with a decreased risk of adverse side effects associated with the test compound or composition. A ratio of uterine mass to body weight can be used to correct for any increase in uterine size attributable to the relative size of the individual animal. Body weight and/or uterine mass also serve as an indirect measures of toxicity of a test compound.

[9] = tested on: OVX rats; assay: RatLaps ELISA for C-telopeptide fragments of collagen type I (CTX-I) in serum; assay type: in vivo, Sprague-Dawley female rats; settings: Formula 125 at 1000 μg/kg, 17-ethinyl estradiol equimolar, alendronate 1.6 mg/kg
Description: RatLaps™ ELISA for C-Telopeptide Fragments of Collagen Type I (CTX-I). […] Bone resorption (CTX-I) was quantitatively assessed in rat serum using the commercially available RatLaps™ ELISA KIT from Nordic Bioscience Diagnostics A/S (Herlev, Denmark) as recommended by the manufacturer.

[10] = present-tense example, no data or figure

Row | SMILES | Binding Index (binding to hydroxyapatite) [1] | lipid metabolism (total cholesterol, HDL, LDL in serum) ([2]; rat, in vivo) | whole bone density (right femora) ([3]; OVX rats, oral 10, 100, or 1000 μg/kg, three times per week for 6 weeks) | regional bone density (left femur) [4] | bone density from three-dimensional micro-CT images [5] | trabecular volume fraction [5] | bone strength (tibial indentation test) ([6]; OVX rats, oral 10, 100, or 1000 μg/kg) | new bone area (calvarial injection model) [7] | uterine mass [8] | lipid metabolism (total cholesterol, HDL, LDL in serum) [2, 10] | whole bone density and regional bone density [3] | volume fraction (BV/TV) of trabecular, cortical and whole bone tissue [5] | bone strength (indentation test) [6] | production of CTX-I (bone resorption marker) in serum [9] | ratio of uterine mass to body weight ([8]; OVX rats, oral 10, 100, or 1000 μg/kg, compared to animals treated with 17-ethinyl estradiol)
1 | COc1ccc(NC(=O)COCCOCCOCCNC(=O)CCO[C@@H]2CCC3C4CCc5cc(O)ccc5C4CCC32C)c(O)c1C(N)=O (stereo partly drawn) [Formula 124] | 100 | limited or no effect | in the same ranges as those animals receiving 17-ethinyl estradiol (17 EE), Alendronate (Alen), or Parathyroid hormone 1-34 (PTH) | in the same ranges as those animals receiving 17-ethinyl estradiol (17 EE), Alendronate (Alen), or Parathyroid hormone 1-34 (PTH) | increase in bone density | in the same ranges as those animals receiving 17-ethinyl estradiol (17 EE), Alendronate (Alen), or Parathyroid hormone 1-34 (PTH) | dose-responsive increase in bone strength, relative to the OVX animals | increase new bone area |  |  |  |  |  |  | 
2 | COc1ccc(NC(=O)COCCOCCNC(=O)CCCC(CO[N+](=O)[O-])O[N+](=O)[O-])c(O)c1C(N)=O (stereo not drawn) [Formula 130] | 130 |  |  |  |  |  |  | increase new bone area | limited or no effect | limited or no effect | increase bone density | increase bone density | increase bone strength |  | 
3 | C#C[C@]1(O)CC[C@H]2[C@@H]3CCc4cc(O)ccc4[C@H]3CC[C@@]21C [17-ethinyl estradiol] |  |  |  |  |  |  |  |  |  |  |  |  |  | descrease the production of CTX-1 to sham levels | 
4 | COc1ccc(NC(=O)COCCOCCNC(=O)COc2ccc(-c3coc4cc(O)cc(O)c4c3=O)cc2)c(O)c1C(N)=O [Formula 128] |  |  |  |  |  |  |  | increase new bone area | limited or no effect | limited or no effect | increase bone density | increase bone density | increase bone strength |  | 
5 | NCCCC(O)(P(=O)(O)O)P(=O)(O)O [alendronate] |  |  |  |  |  |  |  |  |  |  |  |  |  | descrease the production of CTX-1 to sham levels | 
6 | COc1ccc(NC(=O)CCC(=O)Nc2nnc(S(N)(=O)=O)s2)c(O)c1C(N)=O [Formula 35] | 20 |  |  |  |  |  |  | increase new bone area | limited or no effect | limited or no effect | increase bone density | increase bone density | increase bone strength |  | 
7 | CC12CCC3c4ccc(O)cc4CCC3C1CC[C@H]2OCCC(=O)NCCOCCOCC(=O)Nc1ccc(OCc2ccccc2)c(C(N)=O)c1O (stereo partly drawn) [Formula 125] | 160 | limited or no effect |  | increased regional bone densities, as compared to the OVX animals; also recorded: increased regional bone densities, as compared to the Sham animals | increase in bone density | increased, as compared to OVX animals |  | increase new bone area |  |  |  |  | increase bone strength | do not inhibit production of CTX-I | lower
